In patent US8012711B2, “Methods of screening for compounds that reduce microbial resistance to fluoroquinolones” (priority 1999, dated 2011):
≈ marks a conversion by molar mass, not a printed value. Read-outs that look alike come from different tables or passages of the source.

Tests used:
Assay type in all cases: cell-based
[1] = tested on: Escherichia coli AG100, AG112 and derived fluoroquinolone-resistant mutants with ΔacrAB; assay: MIC by broth microdilution, AcrAB-deleted strains; settings: for MIC: Escherichia coli; for Ofx MIC: AcrAB knocked out
Description: (§1) Susceptibility testing. MICs of selected antimicrobial agents were determined by a standard broth microdilution procedure with cation-adjusted Mueller-Hinton broth (Becton Dickinson, Cockeysville, Md.) and an inoculum of 5×10^5 CFU/ml according to NCCLS performance and interpretive guidelines (NCCLS. 1997. Methods for dilution antimicrobial susceptibility. Tests for bacteria that grow aerobically—Fourth Edition; Approved Standard. NCCLS document M7-A4 (ISBN 1-56238-309-4). NCCLS, 940 West Valley Road, Suite 1400, Wayne, Pa. 19087). Antimicrobial agents on the commercially available microtiter plates (Merlin Diagnostics GmbH, Bornheim, Germany) included the FQs ciprofloxacin (CIP), enoxacin, fleroxacin, nor-flo-xacin, ofloxacin (OFL), pefloxacin, sparfloxacin (SPX), and trovafloxacin (TVA). They also included tetracycline (TET), chloramphenicol (CML), trimethoprim (TMP), cefoxitin (CFOX), cefaclor, cefixim and loracarbef. MICs of bile salts were determined by a broth macrodilution procedure: sodium cholate and sodium deoxycholate were serially diluted twofold in LB broth and tubes inoculated at 5×10^5 CFU/ml. MICs of both antibiotics and bile salts were determined twice in independent experiments with reproducible results.
P1 transduction. […] DNA sequencing.

[2] = tested on: Escherichia coli K-12 AG100, its Mar mutant AG112 and derived fluoroquinolone-resistant mutants (acrAB+); assay: MIC by broth microdilution, acrAB+ strains; settings: for MIC: Escherichia coli; for Ofx MIC: with AcrAB
Description: Selection of fluoroquinolone-resistant mutants. 1-AG100, 2°-AG100, 3*-AG100, 4*-AG100 and 1′-AG112, 2′-AG112, 3′-AG112 were sequential step mutants derived from AG 100 and AG112, respectively, on solid media. For each step, about 10^11 cells of an overnight culture were plated on several LB agar plates supplemented with increasing concentrations of OFL. Single colonies were further purified on OFL-supplemented agar plates. Mutant 2°-AG100 came out of one series, while mutants 3*- and 4*-AG100 came from a second series.
as §1

[3] = tested on: Escherichia coli K-12 AG100, its Mar mutant AG112 and derived fluoroquinolone-resistant mutants (acrAB+); assay: MIC by broth microdilution, acrAB+ strains
[4] = strain 1-AG112 (1′-AG112), ΔacrAB
[5] = strain 2-AG100 (2°-AG100), ΔacrAB
[6] = strain 2-AG112 (2′-AG112), ΔacrAB
[7] = strain 3-AG112 (3′-AG112), ΔacrAB
[8] = strain 1-AG100, acrAB+, read-out: MIC
[9] = strain 1-AG112 (1′-AG112), acrAB+, read-out: MIC
[10] = strain 2-AG100 (2°-AG100), acrAB+, read-out: MIC
[11] = strain 2-AG112 (2′-AG112), acrAB+, read-out: MIC
[12] = strain 3*-AG100, acrAB+, read-out: MIC
[13] = strain 3-AG112 (3′-AG112), acrAB+, read-out: MIC
[14] = strain 4*-AG100, acrAB+, read-out: MIC
[15] = strain AG100, acrAB+, read-out: MIC
[16] = strain AG112 (Mar mutant), acrAB+

CO[C@@]1(NC(=O)Cc2cccs2)C(=O)N2C(C(=O)O)=C(COC(N)=O)CS[C@@H]21 [CFOX, cefoxitin] gave an MIC ([1]; strain 1-AG100, ΔacrAB) of 0.5 µg/mL (≈ 1.17 µM), an MIC [1, 4] of 1 µg/mL (≈ 2.34 µM) and an MIC [1, 5] of 0.5 µg/mL (≈ 1.17 µM). It also gave an MIC [1, 6] of 0.5 µg/mL (≈ 1.17 µM), an MIC ([1]; strain 3*-AG100, ΔacrAB) of 0.5 µg/mL (≈ 1.17 µM) and an MIC [1, 7] of 0.5 µg/mL (≈ 1.17 µM). The MIC ([1]; strain 4*-AG100, ΔacrAB) was 1 µg/mL (≈ 2.34 µM), the MIC ([1]; strain AG100, ΔacrAB) was 0.5 µg/mL (≈ 1.17 µM) and the MIC ([1]; strain AG112, ΔacrAB) was 1 µg/mL (≈ 2.34 µM). It also gave an MIC [2, 8] of 4 µg/mL (≈ 9.36 µM), an MIC [2, 9] of 16 µg/mL (≈ 37.4 µM) and an MIC [2, 10] of 16 µg/mL (≈ 37.4 µM). For the same compound, the MIC [2, 11] was 32 µg/mL (≈ 74.9 µM), the MIC [2, 12] was 32 µg/mL (≈ 74.9 µM) and the MIC [2, 13] was 64 µg/mL (≈ 150 µM). The MIC [2, 14] was 32 µg/mL (≈ 74.9 µM), the MIC [2, 15] was 4 µg/mL (≈ 9.36 µM) and the MIC [2, 16] was 32 µg/mL (≈ 74.9 µM).
Compound O=C(N[C@H](CO)[C@H](O)c1ccc([N+](=O)[O-])cc1)C(Cl)Cl [CML, chloramphenicol] has an MIC ([1]; strain 1-AG100, ΔacrAB) of 1 µg/mL (≈ 3.09 µM), an MIC [1, 4] of 1 µg/mL (≈ 3.09 µM) and an MIC [1, 5] of 1 µg/mL (≈ 3.09 µM). The MIC [1, 6] was 1 µg/mL (≈ 3.09 µM), the MIC ([1]; strain 3*-AG100, ΔacrAB) was 1 µg/mL (≈ 3.09 µM) and the MIC [1, 7] was 1 µg/mL (≈ 3.09 µM). It also gave an MIC ([1]; strain 4*-AG100, ΔacrAB) of 1 µg/mL (≈ 3.09 µM), an MIC ([1]; strain AG100, ΔacrAB) of 1 µg/mL (≈ 3.09 µM) and an MIC ([1]; strain AG112, ΔacrAB) of 1 µg/mL (≈ 3.09 µM). It also gave an MIC [2, 8] of 4 µg/mL (≈ 12.4 µM), an MIC [2, 9] of 32 µg/mL (≈ 99 µM) and an MIC [2, 10] of 16 µg/mL (≈ 49.5 µM). For the same compound, the MIC [2, 11] was 64 µg/mL (≈ 198 µM), the MIC [2, 12] was 32 µg/mL (≈ 99 µM) and the MIC [2, 13] was 64 µg/mL (≈ 198 µM). For the same compound, the MIC [2, 14] was 64 µg/mL (≈ 198 µM), the MIC [2, 15] was 4 µg/mL (≈ 12.4 µM) and the MIC [2, 16] was 16 µg/mL (≈ 49.5 µM).
CC1COc2c(N3CCN(C)CC3)c(F)cc3c(=O)c(C(=O)O)cn1c23 (centres unmarked) [OFL, ofloxacin] was tested, and the “Enhancement of ofx resistance by in-vitro amplification” value ([3]; AG102, three steps, 0.125 mg/l to 8 mg/l) was 64 fold, the “Ofx MIC” value ([3]; AG102 series, 1st step mutant, with AcrAB) was 1.0 µg/mL and the “Ofx MIC” value ([1]; AG100 series, 1st step mutant) was 0.06 µg/mL. For the same compound, the “Ofx MIC” value ([1]; AG100 series, 2nd step mutant) was 0.06 µg/mL, the “Ofx MIC” value ([1]; AG100 series, 3rd step mutant) was 0.06 µg/mL and the “Ofx MIC” value ([1]; AG100 series, 4th step mutant) was 0.125 µg/mL. For the same compound, the “Ofx MIC” value ([1]; AG100 series, parent) was < 0.015 µg/mL, the “Ofx MIC” value ([1]; AG102 series, 1st step mutant) was 0.06 µg/mL and the “Ofx MIC” value ([1]; AG102 series, 2nd step mutant) was 0.06 µg/mL. For the same compound, the “Ofx MIC” value ([1]; AG102 series, 3rd step mutant) was 0.06 µg/mL, the “Ofx MIC” value ([1]; AG102 series, parent) was < 0.015 µg/mL and the MIC ([1]; strain 1-AG100, ΔacrAB) was 0.06 µg/mL (≈ 0.166 µM). The MIC [1, 4] was 0.06 µg/mL (≈ 0.166 µM), the MIC [1, 5] was 0.06 µg/mL (≈ 0.166 µM) and the MIC [1, 6] was 0.06 µg/mL (≈ 0.166 µM). For the same compound, the MIC ([1]; strain 3*-AG100, ΔacrAB) was 0.06 µg/mL (≈ 0.166 µM), the MIC [1, 7] was 0.06 µg/mL (≈ 0.166 µM) and the MIC ([1]; strain 4*-AG100, ΔacrAB) was 0.125 µg/mL (≈ 0.346 µM). For the same compound, the MIC ([1]; strain AG100, ΔacrAB) was ≤ 0.015 µg/mL, the MIC ([1]; strain AG112, ΔacrAB) was ≤ 0.015 µg/mL and the “Enhancement of ofx resistance by in-vitro amplification” value ([2]; AG100, four steps, 0.03 mg/l to 4 mg/l) was 128 fold. The “Ofx MIC” value ([2]; AG100 series, 1st step mutant) was 0.25 µg/mL, the “Ofx MIC” value ([2]; AG100 series, 2nd step mutant) was 1.0 µg/mL and the “Ofx MIC” value ([2]; AG100 series, 3rd step mutant) was 2.0 µg/mL. For the same compound, the “Ofx MIC” value ([2]; AG100 series, 4th step mutant) was 4.0 µg/mL, the “Ofx MIC” value ([2]; AG100 series, parent) was 0.03 µg/mL and the “Ofx MIC” value ([2]; AG102 series, 2nd step mutant) was 4.0 µg/mL. For the same compound, the “Ofx MIC” value ([2]; AG102 series, 3rd step mutant) was 8.0 µg/mL, the “Ofx MIC” value ([2]; AG102 series, parent (Mar mutant)) was 0.125 µg/mL and the MIC [2, 8] was 0.25 µg/mL (≈ 0.692 µM). The MIC [2, 9] was 1 µg/mL (≈ 2.77 µM), the MIC [2, 10] was 1 µg/mL (≈ 2.77 µM) and the MIC [2, 11] was 4 µg/mL (≈ 11.1 µM). For the same compound, the MIC [2, 12] was 2 µg/mL (≈ 5.53 µM), the MIC [2, 13] was 8 µg/mL (≈ 22.1 µM) and the MIC [2, 14] was 4 µg/mL (≈ 11.1 µM). For the same compound, the MIC [2, 15] was 0.03 µg/mL (≈ 0.083 µM), the MIC [2, 16] was 0.125 µg/mL (≈ 0.346 µM) and the “Fold increase of OFL MIC” value ([2]; strain 1-AG100, as compared to AG100 (wild-type)) was 8 fold. For the same compound, the “Fold increase of OFL MIC” value ([2]; strain 1-AG112 (1′-AG112), as compared to AG100 (wild-type)) was 32 fold, the “Fold increase of OFL MIC” value ([2]; strain 2-AG100 (2°-AG100), as compared to AG100 (wild-type)) was 32 fold and the “Fold increase of OFL MIC” value ([2]; strain 2-AG112, as compared to AG100 (wild-type)) was 128 fold. For the same compound, the “Fold increase of OFL MIC” value ([2]; strain 3*-AG100, as compared to AG100 (wild-type)) was 64 fold, the “Fold increase of OFL MIC” value ([2]; strain 3-AG112, as compared to AG100 (wild-type)) was 256 fold and the “Fold increase of OFL MIC” value ([2]; strain 4*-AG100, as compared to AG100 (wild-type)) was 128 fold. The “Fold increase of OFL MIC” value ([2]; strain AG112, as compared to AG100 (wild-type)) was 4 fold and the “Increase of resistance to OFL by the first mutation step” value ([2]; {}) was 8 fold.
